Format in all cases: biochemical
Assay [1] has as its target JAK2 (Homo sapiens, UniProt O60674). Description: JAK kinase inhibition assay (EZ Reader, peptide substrate phosphorylation) - JAK2. To be noted: JAK2 kinase 1 nM; 8 concentration points, max 10 μM. In short, it runs like this: (§1)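 Microfluidic mobility-shift detection of fluorescent peptide substrate phosphorylation, with JAK1 at 20 nM and JAK2, JAK3 and Tyk2 each at 1 nM final, in 20 mM HEPES pH 7.4, 10 mM MgCl2, 1 mM DTT. Reactions run at room temperature to 20–30% conversion, then EDTA-stopped. Compounds tested at 8 three-fold dilutions from 10 μM top final; IC50 from conversion curves.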

The target in assay [2] is JAK1 (Homo sapiens, UniProt P23458). Description: JAK kinase inhibition assay (EZ Reader, peptide substrate phosphorylation) - JAK1. To be noted: JAK1 kinase 20 nM; 8 concentration points, max 10 μM. In short, it runs like this: as §1
JAK1, sequence (P23458 whole entry): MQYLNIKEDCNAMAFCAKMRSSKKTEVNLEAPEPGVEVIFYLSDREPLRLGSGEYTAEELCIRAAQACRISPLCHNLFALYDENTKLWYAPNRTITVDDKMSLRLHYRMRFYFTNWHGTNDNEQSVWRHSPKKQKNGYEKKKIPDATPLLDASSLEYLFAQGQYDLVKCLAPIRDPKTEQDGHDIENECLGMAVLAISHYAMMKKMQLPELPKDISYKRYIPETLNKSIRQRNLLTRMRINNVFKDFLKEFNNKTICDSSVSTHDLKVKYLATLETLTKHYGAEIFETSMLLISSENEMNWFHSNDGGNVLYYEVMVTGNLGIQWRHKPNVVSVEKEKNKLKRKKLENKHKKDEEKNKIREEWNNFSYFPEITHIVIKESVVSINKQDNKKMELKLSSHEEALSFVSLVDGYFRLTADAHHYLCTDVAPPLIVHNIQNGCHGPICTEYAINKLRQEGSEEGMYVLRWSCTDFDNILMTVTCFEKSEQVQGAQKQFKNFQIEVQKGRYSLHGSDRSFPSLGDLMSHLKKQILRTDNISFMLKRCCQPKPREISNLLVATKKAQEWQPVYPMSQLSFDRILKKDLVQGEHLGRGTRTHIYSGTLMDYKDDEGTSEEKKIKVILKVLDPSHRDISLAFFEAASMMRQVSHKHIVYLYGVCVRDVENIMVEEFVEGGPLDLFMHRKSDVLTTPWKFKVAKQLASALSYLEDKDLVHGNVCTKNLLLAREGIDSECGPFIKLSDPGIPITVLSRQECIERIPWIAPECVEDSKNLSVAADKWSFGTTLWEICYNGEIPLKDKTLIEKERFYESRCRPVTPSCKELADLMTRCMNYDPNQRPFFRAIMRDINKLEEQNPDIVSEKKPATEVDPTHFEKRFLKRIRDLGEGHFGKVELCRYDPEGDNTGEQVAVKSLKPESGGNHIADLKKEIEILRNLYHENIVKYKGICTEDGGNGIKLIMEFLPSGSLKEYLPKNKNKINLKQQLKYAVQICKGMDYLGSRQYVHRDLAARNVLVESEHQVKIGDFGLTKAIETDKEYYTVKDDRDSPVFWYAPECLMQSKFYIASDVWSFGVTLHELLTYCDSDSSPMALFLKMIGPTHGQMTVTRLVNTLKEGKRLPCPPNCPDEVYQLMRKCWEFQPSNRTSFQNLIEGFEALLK
The target of assay [3] is T1, JAK3 (Homo sapiens, UniProt P52333).
T1 sequence (P52333 1-1124): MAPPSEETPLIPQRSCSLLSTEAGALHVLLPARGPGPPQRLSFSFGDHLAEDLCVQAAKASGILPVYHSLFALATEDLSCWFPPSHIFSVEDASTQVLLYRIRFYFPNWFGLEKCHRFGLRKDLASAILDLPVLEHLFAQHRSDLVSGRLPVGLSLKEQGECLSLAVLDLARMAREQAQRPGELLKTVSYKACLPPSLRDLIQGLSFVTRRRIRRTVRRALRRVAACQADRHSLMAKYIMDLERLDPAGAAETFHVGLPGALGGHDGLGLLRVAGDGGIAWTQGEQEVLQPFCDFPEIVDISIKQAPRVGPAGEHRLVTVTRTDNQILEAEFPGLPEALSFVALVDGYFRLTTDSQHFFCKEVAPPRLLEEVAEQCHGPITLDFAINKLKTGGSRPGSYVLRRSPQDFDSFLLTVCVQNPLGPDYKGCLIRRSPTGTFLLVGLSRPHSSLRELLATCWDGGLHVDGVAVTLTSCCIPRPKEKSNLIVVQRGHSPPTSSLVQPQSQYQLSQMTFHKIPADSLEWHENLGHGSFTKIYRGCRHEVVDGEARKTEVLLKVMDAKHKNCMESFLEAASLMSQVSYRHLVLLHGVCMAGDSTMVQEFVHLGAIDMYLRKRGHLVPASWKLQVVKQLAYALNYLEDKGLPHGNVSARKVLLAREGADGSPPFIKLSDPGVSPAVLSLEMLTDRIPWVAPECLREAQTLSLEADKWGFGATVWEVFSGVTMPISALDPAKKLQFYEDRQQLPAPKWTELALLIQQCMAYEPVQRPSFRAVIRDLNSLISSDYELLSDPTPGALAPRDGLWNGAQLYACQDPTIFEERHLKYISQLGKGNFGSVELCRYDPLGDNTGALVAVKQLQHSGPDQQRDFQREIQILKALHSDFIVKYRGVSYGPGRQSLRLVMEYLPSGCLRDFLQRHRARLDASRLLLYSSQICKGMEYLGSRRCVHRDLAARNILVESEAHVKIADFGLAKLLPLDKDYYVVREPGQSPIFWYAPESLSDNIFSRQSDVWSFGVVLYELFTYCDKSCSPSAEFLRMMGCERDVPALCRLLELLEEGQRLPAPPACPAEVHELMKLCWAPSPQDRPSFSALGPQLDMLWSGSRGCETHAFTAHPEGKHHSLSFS
The experiment in a line: JAK kinase inhibition assay (EZ Reader, peptide substrate phosphorylation) - JAK3. To be noted: JAK3 kinase 1 nM; 8 concentration points, max 10 μM. The method, boiled down: as §1

Assay [4] addresses Tyk2 (Homo sapiens, UniProt P29597). The experiment in a line: JAK kinase inhibition assay (EZ Reader, peptide substrate phosphorylation) - Tyk2. To be noted: Tyk2 kinase 1 nM; 8 concentration points, max 10 μM. In short, it runs like this: as §1

What is called IC50 is the point on the concentration scale where inhibition reaches its midpoint. A higher IC50 goes with weaker potency.

JAK2, sequence (O60674 whole entry): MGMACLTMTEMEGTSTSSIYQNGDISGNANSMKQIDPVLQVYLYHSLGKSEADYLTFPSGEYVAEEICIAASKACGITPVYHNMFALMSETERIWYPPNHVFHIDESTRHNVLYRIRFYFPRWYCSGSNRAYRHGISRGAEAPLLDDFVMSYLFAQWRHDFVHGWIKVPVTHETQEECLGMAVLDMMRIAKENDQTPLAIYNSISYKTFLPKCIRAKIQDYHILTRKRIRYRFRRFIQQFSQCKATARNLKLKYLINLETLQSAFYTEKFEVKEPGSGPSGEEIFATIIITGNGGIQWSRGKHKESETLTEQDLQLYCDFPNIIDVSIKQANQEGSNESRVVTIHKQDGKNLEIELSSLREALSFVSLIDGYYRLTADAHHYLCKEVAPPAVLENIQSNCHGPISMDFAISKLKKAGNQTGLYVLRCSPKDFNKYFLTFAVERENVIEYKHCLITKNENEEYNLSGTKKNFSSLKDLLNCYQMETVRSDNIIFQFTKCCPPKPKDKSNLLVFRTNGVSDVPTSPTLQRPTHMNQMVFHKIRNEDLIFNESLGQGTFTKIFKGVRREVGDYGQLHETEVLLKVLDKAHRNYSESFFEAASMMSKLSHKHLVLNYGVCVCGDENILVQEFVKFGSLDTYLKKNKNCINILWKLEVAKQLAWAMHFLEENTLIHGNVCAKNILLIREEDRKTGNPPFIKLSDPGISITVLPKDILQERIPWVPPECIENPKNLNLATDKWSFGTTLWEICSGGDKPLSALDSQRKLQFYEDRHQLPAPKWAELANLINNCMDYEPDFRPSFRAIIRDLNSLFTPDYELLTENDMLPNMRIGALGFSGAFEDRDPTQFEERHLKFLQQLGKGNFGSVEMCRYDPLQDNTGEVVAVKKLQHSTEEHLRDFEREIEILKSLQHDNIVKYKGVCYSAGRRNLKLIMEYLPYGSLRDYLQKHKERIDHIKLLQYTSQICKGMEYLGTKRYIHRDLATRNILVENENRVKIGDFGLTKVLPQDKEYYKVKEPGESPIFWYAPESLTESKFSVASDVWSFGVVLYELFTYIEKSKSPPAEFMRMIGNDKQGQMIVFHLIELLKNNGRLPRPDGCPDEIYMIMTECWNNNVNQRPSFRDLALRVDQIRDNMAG
Tyk2, sequence (P29597 whole entry): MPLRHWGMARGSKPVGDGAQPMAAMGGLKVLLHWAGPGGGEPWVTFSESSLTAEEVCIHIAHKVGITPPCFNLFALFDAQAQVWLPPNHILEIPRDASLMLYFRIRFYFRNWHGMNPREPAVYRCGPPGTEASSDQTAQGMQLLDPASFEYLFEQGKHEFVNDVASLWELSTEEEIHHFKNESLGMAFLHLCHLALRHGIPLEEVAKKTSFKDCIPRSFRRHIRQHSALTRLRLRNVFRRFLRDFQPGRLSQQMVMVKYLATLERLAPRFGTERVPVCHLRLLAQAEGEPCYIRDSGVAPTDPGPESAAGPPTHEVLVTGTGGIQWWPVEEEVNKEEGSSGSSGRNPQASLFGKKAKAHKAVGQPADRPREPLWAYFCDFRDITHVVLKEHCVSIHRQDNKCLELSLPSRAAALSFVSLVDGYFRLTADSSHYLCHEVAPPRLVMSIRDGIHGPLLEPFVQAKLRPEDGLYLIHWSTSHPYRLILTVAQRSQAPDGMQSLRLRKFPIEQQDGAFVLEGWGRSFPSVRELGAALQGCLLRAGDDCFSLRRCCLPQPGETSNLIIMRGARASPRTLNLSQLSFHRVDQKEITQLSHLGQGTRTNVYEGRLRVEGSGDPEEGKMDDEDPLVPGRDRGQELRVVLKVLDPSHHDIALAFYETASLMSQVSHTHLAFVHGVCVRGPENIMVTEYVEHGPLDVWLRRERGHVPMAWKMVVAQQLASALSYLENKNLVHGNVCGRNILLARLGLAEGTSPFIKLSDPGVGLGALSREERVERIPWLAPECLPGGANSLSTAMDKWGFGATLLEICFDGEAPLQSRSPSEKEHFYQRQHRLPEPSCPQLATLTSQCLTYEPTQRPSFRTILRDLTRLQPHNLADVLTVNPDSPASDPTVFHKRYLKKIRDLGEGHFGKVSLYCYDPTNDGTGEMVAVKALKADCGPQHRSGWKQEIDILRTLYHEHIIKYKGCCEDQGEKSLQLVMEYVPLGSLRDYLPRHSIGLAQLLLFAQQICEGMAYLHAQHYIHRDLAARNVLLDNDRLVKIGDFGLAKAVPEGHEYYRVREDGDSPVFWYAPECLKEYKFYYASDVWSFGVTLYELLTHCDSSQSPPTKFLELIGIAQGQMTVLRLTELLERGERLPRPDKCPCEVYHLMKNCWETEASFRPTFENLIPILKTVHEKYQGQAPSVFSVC

As to `CCCCS(=O)(=O)Nc1ccc(-c2ccnc(Nc3cnn(C)c3)n2)cc1` [TDM-180832, N-(4-(2-((1-methyl-1H-pyrazol-4-yl)amino)pyrimidin-4-yl)phenyl)butane-1-sulfonamide], the IC50 in assay [1] is 0.1 to 1 µM; in assay [2] it was 0.1 to 1 µM; in assay [3], 1 to 10 µM; in assay [4] it was 0.1 to 1 µM.
Turning to `Cn1cc(Nc2nccc(-c3ccc(NC(=O)CC#N)nc3)n2)cn1` [TDM-180833, 2-cyano-N-(5-(2-((1-methyl-1H-pyrazol-4-yl)amino)pyrimidin-4-yl)pyridin-2-yl)acetamide], the IC50 was 0.1 to 1 µM in assay [1], 0.1 to 1 µM in assay [2], 1 to 10 µM in assay [3] and 0.1 to 1 µM in assay [4].
Turning to `CCOCCS(=O)(=O)Nc1ccc(-c2ccnc(Nc3cnn(C)c3)n2)cc1` [TDM-180834, 2-ethoxyl-N-(4-(2-((1-methyl-1H-pyrazol-4-yl)amino)pyrimidin-4-yl)phenyl)ethyl-1-sulfonamide], the IC50 in assay [1] is under 0.1 µM; in assay [2], under 0.1 µM; in assay [3] it was 1 to 10 µM; in assay [4] it was 0.1 to 1 µM.
Take `C=CCS(=O)(=O)Nc1ccc(-c2ccnc(Nc3cnn(C)c3)n2)cc1` [TDM-180844, N-(4-(2-((1-methyl-1H-pyrazol-4-yl)amino)pyrimidin-4-yl)phenyl)prop-2-ene-1-sulfonamide]: the IC50 in assay [1] was 0.1 to 1 µM; in assay [2], 0.1 to 1 µM; in assay [3], 1 to 10 µM; in assay [4], 0.1 to 1 µM.
Take `Cn1cc(Nc2nccc(-c3ccc(NC(=O)C(F)F)nc3)n2)cn1` [TDM-180849, 2,2-difluoro-N-(5-(2-((1-methyl-1H-pyrazol-4-yl)amino)pyrimidin-4-yl)pyridin-2-yl)acetamide]: the 50% inhibitory concentration (IC50) in assay [1] is 0.1 to 1 µM; in assay [2], 0.1 to 1 µM; in assay [3], 1 to 10 µM; in assay [4], 0.1 to 1 µM.
Turning to `Cn1cc(Nc2nccc(-c3ccc(NS(=O)(=O)CCC(F)(F)F)cc3)n2)cn1` [TDM-180850, 3,3,3-trifluoro-N-(4-(2-((1-methyl-1H-pyrazol-4-yl)amino)pyrimidin-4-yl)phenyl)propyl-1-sulfonamide], the IC50 in assay [1] was 0.1 to 1 µM; in assay [2], 0.1 to 1 µM; in assay [3], at least 10 µM; in assay [4], 0.1 to 1 µM.

(Values after patent US20240174648A1, “Small Molecule Compound” (Technoderma Medicines Pte Ltd, priority 2019, published 2024).)
